This is an account of results in patent US20090274778A1 (priority 2004, published 2009).

One assay concerns the target T1, COX-1 enzyme (ovine) (Ovis aries, UniProt P05979).
T1 construct: purchased Cayman Chemical 60100
T1 sequence (P05979 25-600): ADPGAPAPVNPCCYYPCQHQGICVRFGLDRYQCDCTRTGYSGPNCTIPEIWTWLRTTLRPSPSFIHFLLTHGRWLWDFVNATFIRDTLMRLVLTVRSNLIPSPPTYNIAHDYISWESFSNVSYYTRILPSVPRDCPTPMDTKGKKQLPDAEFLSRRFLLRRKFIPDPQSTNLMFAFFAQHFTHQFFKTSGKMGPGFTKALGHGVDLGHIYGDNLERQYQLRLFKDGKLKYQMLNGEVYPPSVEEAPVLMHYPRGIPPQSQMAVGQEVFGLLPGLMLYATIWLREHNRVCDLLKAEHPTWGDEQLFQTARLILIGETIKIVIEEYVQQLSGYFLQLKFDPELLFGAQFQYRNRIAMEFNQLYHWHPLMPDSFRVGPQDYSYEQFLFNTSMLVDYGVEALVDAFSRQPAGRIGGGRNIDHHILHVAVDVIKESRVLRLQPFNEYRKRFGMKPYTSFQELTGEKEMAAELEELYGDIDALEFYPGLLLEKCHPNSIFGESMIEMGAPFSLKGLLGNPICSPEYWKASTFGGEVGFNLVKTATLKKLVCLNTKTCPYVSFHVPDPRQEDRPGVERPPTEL
In words: COX-1 enzyme inhibition (COX-1 synthesis of PGE2). Type of assay: biochemical. As to the method: Determination of COX-1 Enzyme Inhibition by Hops Extract—The ability of a test material to inhibit COX-1 synthesis of PGE2 was determined essentially as described by Noreen, Y., et al. (J. Nat. Prod. 61, 2-7, 1998). […]

The target in the next assay is T2, COX-2 (Homo sapiens, UniProt P35354).
T2 sequence (P35354 18-604): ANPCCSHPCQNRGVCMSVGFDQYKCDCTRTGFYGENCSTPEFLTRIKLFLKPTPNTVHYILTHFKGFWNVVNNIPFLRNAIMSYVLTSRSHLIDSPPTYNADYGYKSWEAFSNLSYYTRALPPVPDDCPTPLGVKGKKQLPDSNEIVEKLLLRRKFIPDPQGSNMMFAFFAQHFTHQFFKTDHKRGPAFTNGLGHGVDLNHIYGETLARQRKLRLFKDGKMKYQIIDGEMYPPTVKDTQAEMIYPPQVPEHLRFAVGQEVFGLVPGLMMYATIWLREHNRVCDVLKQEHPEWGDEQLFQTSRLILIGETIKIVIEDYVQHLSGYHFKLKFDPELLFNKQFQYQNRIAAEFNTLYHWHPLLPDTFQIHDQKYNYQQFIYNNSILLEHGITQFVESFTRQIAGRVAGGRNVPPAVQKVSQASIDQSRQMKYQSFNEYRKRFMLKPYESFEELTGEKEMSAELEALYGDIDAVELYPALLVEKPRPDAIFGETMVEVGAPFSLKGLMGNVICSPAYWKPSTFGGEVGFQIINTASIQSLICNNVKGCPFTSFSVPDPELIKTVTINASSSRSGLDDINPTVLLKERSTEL
Particulars: specificity for COX-2 over COX-1, background statement; cited from earlier work.

The compound `COc1cc(/C=C/C(=O)CC(=O)/C=C/c2ccc(O)c(OC)c2)ccc1O` [curcumin] gave a half-maximal inhibitory concentration (IC50) on COX-1 enzyme (ovine) of 27.1 µM.

Consider `CC(=O)Oc1ccccc1C(=O)O` [aspirin], for which the “reported COX-2 specificity” value at COX-2 is given as 0.6.
